pEC50: −log10 of the molar value. Like-named read-outs stand apart in the source and are kept apart here.
Tested on: p-sites in DNA-damaged AsPC-1 cells
Test: decryptM dose-resolved phosphoproteomics of ATRi in GEM-pre-treated cells
Type: cell-based, human
Conditions: for pEC50 / EC50: Homo sapiens; for ATRi Regulation (Curve), RALY S176: classified by CurveCurator
Experimental: Cell culture medium was replaced 24 h after seeding. […] For time point 0, AsPC-1 cells were treated with a vehicle and lysed immediately. The final DMSO concentration in all experiments was 0.2%.
Briefly, cells were washed twice with PBS and lysed in SDS lysis buffer (2% SDS in 40 mM Tris-HCl, pH 7.6), followed by sonication for 10 min (30 s on/30 s off) using a Bioruptor (Diagenode). For DNA hydrolysis, samples were boiled at 95 °C for 10 min and incubated with 2% trifluoroacetic acid (TFA) for 1 min, before the reaction was quenched using 4% N-methylmorpholine. Lysate was cleared by centrifugation at 11,000 × g for 5 min and protein concentration was determined using the Pierce BCA Protein Assay Kit (Thermo Scientific).
Using 70% ethanol, samples were then precipitated on beads, followed by washing thrice with 80% ethanol and once with 100% acetonitrile. Subsequently, proteins were reduced and alkylated using 10 mM TCEP, 50 mM chloroacetamide, and 2 mM CaCl2 in 100 mM EPPS/NaOH, pH 8.5 for 1 h at 37 °C, followed by tryptic digestion at 37 °C for 16 h. Peptides were acidified with 1% TFA and desalted on Chromabond HLB plates (30 µm particle size, 10 mg capacity, Machery-Nagel), using 0.1% TFA for equilibration and sample loading, and 0.1% TFA in 70% acetonitrile for peptide elution. Recovered peptides were freeze-dried by vacuum-centrifugation and stored at −20 °C.
Depending on the experiment, samples were either labeled with TMT-11plex (decryptM), TMT-10plex (non-decryptM, quadruplicates), or TMTpro reagent (time-series; all Thermo Scientific). Therefore, dried peptides were reconstituted in 15 µl 100 mM EPPS, pH 8.5 and each treatment condition was labeled with one channel of the respective TMT reagent (5 µl of 25 µg/µl reagent, Appendix Tables S4–S6). The reaction was incubated for 1 h at 23 °C and subsequently quenched with 0.4% hydroxylamine. Then, samples were pooled, acidified with 1% formic acid, and freeze-dried by vacuum-centrifugation. Labeled peptide pools were desalted on C18 Sep-Pak cartridges (37–55 µm particle size, 50 mg capacity, Waters), using 0.1% formic acid as equilibration solvent, and 0.1% formic acid in 60% acetonitrile was used as elution solvent. Eluted peptides were freeze-dried and stored at −20 °C until further use.
Basic reversed-phase (bRP) fractionation of peptides was performed on a Vanquish HPLC (Thermo Scientific). In short, dried peptides were reconstituted in 200 µl 25 mM ammonium bicarbonate, pH 8.0 and directly injected onto a Waters BEH130 XBridge C18 column (3.5 µm, 4.6 × 250 mm). […] Using an automated fraction collector, 96 fractions were collected between min 7 and 55 after injection. Fractions were acidified with 1% formic acid and pooled to 48 fractions, before they were freeze-dried and stored at −20 °C.
Immobilized metal ion affinity chromatography (IMAC) enrichment of phosphorylated peptides was performed on the Bravo automated liquid handling platform using AssayMAP Fe(III)-NTA cartridges (Agilent). In brief, the 48 dried peptide fractions were reconstituted in 0.1% TFA in 80% acetonitrile and further pooled to 12 fractions (200 µl final volume per well). The phosphopeptide enrichment protocol embedded in the Agilent AssayMAP Bravo Protein Sample Prep Workbench v2.0 software was run. Thereby, the cartridges were first primed with 150 μl 0.1% TFA in acetonitrile at 300 μl/min, and equilibrated with 150 μl 0.1% TFA in 80% acetonitrile at 10 μl/min. Then, pooled fractions were loaded at 5 µl/min and further washed three times with 150 μl 0.1% TFA in 80% acetonitrile at 50 μl/min. Enriched peptides were eluted with 60 μl 1% ammonium hydroxide at 5 μl/min.

[1] = source data 4B (p-site not named), 1 µM GEM + ATRi 300 nM
[2] = source data 4B (p-site not named), 1 µM GEM + ATRi 1000 nM
[3] = source data 4B (p-site not named), 1 µM GEM + ATRi 3000 nM
[4] = source data 4B (p-site not named), 1 µM GEM + ATRi 10000 nM
[5] = source data 5B (p-site not named), 1 µM GEM + ATRi 3 nM
[6] = source data 5B (p-site not named), 1 µM GEM + ATRi 30 nM

## C[C@@H]1COCCN1c1cc(C2([S@](C)(=N)=O)CC2)nc(-c2cc[nH]c3nccc2-3)n1 [Ceralasertib]
AASDHPPT-pS258
  Log2 PTM response (GEM+ATRi vs. GEM): -0.9
BRCA1-pS1239
  Log2 PTM response (GEM+ATRi vs. GEM): -1.1
BRD8-pS621
  Log2 PTM response (GEM+ATRi vs. GEM): -1.7
CDKN2AIP-pS198
  Log2 PTM response (GEM+ATRi vs. GEM): -1.6
CHEK1-pS317
  Log2 PTM response (GEM+ATRi vs. GEM): -2
CHEK1-pS468
  Log2 PTM response (GEM+ATRi vs. GEM): -3.8
DHX9-pS321
  Log2 PTM response (GEM+ATRi vs. GEM): -1.6
EXO1-pS714
  Log2 PTM response (GEM+ATRi vs. GEM): -0.7
FANCD2-pS319
  Log2 PTM response (GEM+ATRi vs. GEM): -1.3
HDGF-pS103
  Log2 PTM response (GEM+ATRi vs. GEM): -1.4
HMGA1-pS9
  Log2 PTM response (GEM+ATRi vs. GEM): -2
HMGA1-pS36;S44
  Log2 PTM response (GEM+ATRi vs. GEM): -1.5
HMGA1-pS44
  Log2 PTM response (GEM+ATRi vs. GEM): -1.7
HSPA4-pS552
  Log2 PTM response (GEM+ATRi vs. GEM): -1.1
HTATSF1-pS481
  Log2 PTM response (GEM+ATRi vs. GEM): -0.6
ASPC1, approximate, from density plot Fig. 4C (peer review file), read-out: EC50 of the majority of pSQ/pTQ sites
  pEC50: ~7.00
ASPC1, approximate, from density plot Fig. 4C (peer review file), read-out: pEC50 of the majority of pSQ/pTQ sites (converted)
  EC50: ~100 nM
ASPC1, p-site dose-response in GEM-pre-treated cells, read-out: EC50, RALY S176
  pEC50: 6.82
ASPC1, p-site dose-response in GEM-pre-treated cells, read-out: pEC50, RALY S176 (converted)
  EC50: 151 nM
ASPC1, read-out: median EC50 across all drug-regulated pSQ/pTQ-sites
  pEC50: 6.81
LRRC42-pS385
  Log2 PTM response (GEM+ATRi vs. GEM): -2.5
NBN-pS397
  Log2 PTM response (GEM+ATRi vs. GEM): -1.2
NBN-pS615
  Log2 PTM response (GEM+ATRi vs. GEM): -0.5
NSUN5-pS432
  Log2 PTM response (GEM+ATRi vs. GEM): -3
PELP1-pS1033
  Log2 PTM response (GEM+ATRi vs. GEM): -1.3
PHF14-pS294
  Log2 PTM response (GEM+ATRi vs. GEM): -1.2
PPM1G-pS201
  Log2 PTM response (GEM+ATRi vs. GEM): -1.9
PPP6R3-pS825
  Log2 PTM response (GEM+ATRi vs. GEM): -1.6
PSMD4-pS266
  Log2 PTM response (GEM+ATRi vs. GEM): -1.3
RAD18-pS368
  Log2 PTM response (GEM+ATRi vs. GEM): -1.2
RIF1-pS1873
  Log2 PTM response (GEM+ATRi vs. GEM): -0.6
SNRPA-pS115
  Log2 PTM response (GEM+ATRi vs. GEM): -1.4
TCEA1-pS100;S97
  Log2 PTM response (GEM+ATRi vs. GEM): -2.1
TCEB3-pS251
  Log2 PTM response (GEM+ATRi vs. GEM): -1.6
THAP4-pS186
  Log2 PTM response (GEM+ATRi vs. GEM): -1.4
TOPBP1-pS1504
  Log2 PTM response (GEM+ATRi vs. GEM): -1.5
TSEN34-pS136
  Log2 PTM response (GEM+ATRi vs. GEM): -1.1
UHRF1-pS393
  Log2 PTM response (GEM+ATRi vs. GEM): -1.4
UIMC1-pS171
  Log2 PTM response (GEM+ATRi vs. GEM): -2.1
ZC3H14-pS135
  Log2 PTM response (GEM+ATRi vs. GEM): -1.3
  ATRi Regulation (Curve), RALY S176: down
Source data 4B (p-site not named), 1 µM GEM + ATRi 1 nM
  PTM response (norm. to 1 µM GEM): 1.20
Source data 4B (p-site not named), 1 µM GEM + ATRi 3 nM
  PTM response (norm. to 1 µM GEM): 0.93
Source data 4B (p-site not named), 1 µM GEM + ATRi 30 nM
  PTM response (norm. to 1 µM GEM): 0.96
Source data 4B (p-site not named), 1 µM GEM + ATRi 100 nM
  PTM response (norm. to 1 µM GEM): 0.97
[1]
  PTM response (norm. to 1 µM GEM): 0.85
[2]
  PTM response (norm. to 1 µM GEM): 0.52
[3]
  PTM response (norm. to 1 µM GEM): 0.35
[4]
  PTM response (norm. to 1 µM GEM): 0.27
[5]
  PTM response (norm. to 1 µM GEM): 0.78
Source data 5B (p-site not named), 1 µM GEM + ATRi 10 nM
  PTM response (norm. to 1 µM GEM): 0.81
[6]
  PTM response (norm. to 1 µM GEM): 0.67
Source data 5B (p-site not named), 1 µM GEM + ATRi 100 nM
  PTM response (norm. to 1 µM GEM): 0.51
Source data 5B (p-site not named), 1 µM GEM + ATRi 300 nM
  PTM response (norm. to 1 µM GEM): 0.34
Source data 5B (p-site not named), 1 µM GEM + ATRi 1000 nM
  PTM response (norm. to 1 µM GEM): 0.16
Source data 5B (p-site not named), 1 µM GEM + ATRi 3000 nM
  PTM response (norm. to 1 µM GEM): 0.11
Source data 5B (p-site not named), 1 µM GEM + ATRi 10000 nM
  PTM response (norm. to 1 µM GEM): 0.09

## C[C@@H]1COCCN1c1cc(-c2ccnn2C)c2ccnc(-c3ccn[nH]3)c2n1 [Elimusertib]
  Log2 PTM response (GEM+ATRi vs. GEM): -0.6
  ATRi Regulation (Curve), RALY S176: down
BRCA1-pS1239
  Log2 PTM response (GEM+ATRi vs. GEM): -1.6
BRD8-pS621
  Log2 PTM response (GEM+ATRi vs. GEM): -1.4
CDKN2AIP-pS198
  Log2 PTM response (GEM+ATRi vs. GEM): -1.1
CHEK1-pS317
  Log2 PTM response (GEM+ATRi vs. GEM): -1.9
CHEK1-pS468
  Log2 PTM response (GEM+ATRi vs. GEM): -3
DHX9-pS321
  Log2 PTM response (GEM+ATRi vs. GEM): -1.6
EXO1-pS714
  Log2 PTM response (GEM+ATRi vs. GEM): -1
FANCD2-pS319
  Log2 PTM response (GEM+ATRi vs. GEM): -1.9
HDGF-pS103
  Log2 PTM response (GEM+ATRi vs. GEM): -1.1
HMGA1-pS9
  Log2 PTM response (GEM+ATRi vs. GEM): -1.4
HMGA1-pS36;S44
  Log2 PTM response (GEM+ATRi vs. GEM): -1
HMGA1-pS44
  Log2 PTM response (GEM+ATRi vs. GEM): -1.5
HSPA4-pS552
  Log2 PTM response (GEM+ATRi vs. GEM): -0.7
HTATSF1-pS481
  Log2 PTM response (GEM+ATRi vs. GEM): -0.8
ASPC1, read-out: EC50, RALY S176
  pEC50: 7.89
LRRC42-pS385
  Log2 PTM response (GEM+ATRi vs. GEM): -2.3
NBN-pS397
  Log2 PTM response (GEM+ATRi vs. GEM): -0.9
NBN-pS615
  Log2 PTM response (GEM+ATRi vs. GEM): -0.8
PELP1-pS1033
  Log2 PTM response (GEM+ATRi vs. GEM): -1
PNISR-pS706
  Log2 PTM response (GEM+ATRi vs. GEM): -1.9
PPP6R3-pS825
  Log2 PTM response (GEM+ATRi vs. GEM): -0.5
PSMD4-pS266
  Log2 PTM response (GEM+ATRi vs. GEM): -0.9
RAD18-pS368
  Log2 PTM response (GEM+ATRi vs. GEM): -2.1
RIF1-pS1873
  Log2 PTM response (GEM+ATRi vs. GEM): -0.6
SNRPA-pS115
  Log2 PTM response (GEM+ATRi vs. GEM): -1.1
TCEA1-pS100;S97
  Log2 PTM response (GEM+ATRi vs. GEM): -2
TCEB3-pS251
  Log2 PTM response (GEM+ATRi vs. GEM): -0.7
THAP4-pS186
  Log2 PTM response (GEM+ATRi vs. GEM): -1.1
TOPBP1-pS1504
  Log2 PTM response (GEM+ATRi vs. GEM): -1.2
TSEN34-pS136
  Log2 PTM response (GEM+ATRi vs. GEM): -0.8
UHRF1-pS393
  Log2 PTM response (GEM+ATRi vs. GEM): -0.7
UIMC1-pS171
  Log2 PTM response (GEM+ATRi vs. GEM): -1.7
ZC3H14-pS135
  Log2 PTM response (GEM+ATRi vs. GEM): -1.6
Source data 4B (p-site not named), 1 µM GEM + ATRi 10 nM
  PTM response (norm. to 1 µM GEM): 0.81
[1]
  PTM response (norm. to 1 µM GEM): 0.28
[2]
  PTM response (norm. to 1 µM GEM): 0.29
[3]
  PTM response (norm. to 1 µM GEM): 0.30
[4]
  PTM response (norm. to 1 µM GEM): 0.27
[5]
  PTM response (norm. to 1 µM GEM): 0.67
[6]
  PTM response (norm. to 1 µM GEM): 0.17
